# Source: patent EP1399176B1, “SUBSTANTIALLY PURE GLYCOPEPTIDE ANTIBIOTICS AC-98-1; AC-98-2; AC-98-3; AC-98-4 AND AC-98-5” (Wyeth Holdings Corporation, priority 2001, dated 2002)
# Numbered stars: 1 amine (or outer) side, 2 acyl side, 3 side chain; on linkers, the order of the positions; unused ones are H or OH. Square brackets hold non-standard residues; d marks the D form. Peptide text beside a SMILES is read from it. * marks the point of attachment. ξ: configuration not given here. X1 = N=C1NCC(C(O)C(N[*:1])C(=O)[*:2])N1C1OC(CO)C(O)C(O)C1O; ξEnduracididine(βξ-OH,4'ξ) = N=C1NCC(C(O)C(N)C(=O)O)N1; X2 = OCC1OC(OC2C(CO)OC(*)C(O)C2O)C(O)C(O)C1O; ξPhe(βξ-Me) = CC(c1ccccc1)C(N)C(=O)O
# Legend:
# Assay in all cases: in vitro antibacterial activity, agar dilution method (MIC)
# Type in all cases: cell-based
# Set-up in all cases: unit not given here
# Conditions in all cases: Mueller-Hinton agar containing 5% sheep blood, 18 hours incubation
# [1] = tested on: Pseudomonas aeruginosa (ATCC 27853)
# Method: (§1) The in vitro antibacterial activity of substantially pure glycopeptide antibiotics AC-98-1, AC-98-2, AC-98-3, AC-98-4, and AC-98-5 from Examples 2 and 3 is determined against a spectrum of bacteria by a standard agar dilution method. Mueller-Hinton agar containing 5% sheep blood and two-fold decreasing concentrations of substantially pure glycopeptide antibiotics AC-98-1, AC-98-2, AC-98-3, AC-98-4, and AC-98-5 from Examples 2 and 3 are poured into petri dishes. The agar surfaces are inoculated with 1 to 5 X 10^4 colony forming units of bacteria by means of a Steers replicating device. The lowest concentration of antibiotic that inhibited the growth of a bacterial strain after 18 hours incubation is recorded as the minimal inhibitory concentration for that strain. Table II. In vitro antibacterial activity of substantially pure antibiotics AC-98-1, AC-98-2, AC-98-3, AC-98-4, and AC-98-5 from Examples 2 and 3
# [2] = tested on: Morganella morganii (VGH 84-11)
# Method: as §1
# [3] = tested on: Enterococcus faecalis (ID-2131)
# Method: as §1
# [4] = tested on: Enterococcus faecium (ID-4133)
# Method: as §1
# [5] = tested on: Staphylococcus aureus (NEMC-89-4)
# Method: as §1
# [6] = tested on: Enterococcus faecium (12202)
# Method: as §1
# [7] = tested on: Staphylococcus aureus (ID-3105)
# Method: as §1
# [8] = tested on: Staph Coagulase Neg (4615)
# Method: as §1
# [9] = tested on: Staph Coagulase Neg (ID-3276)
# Method: as §1
# [10] = tested on: Staphylococcus aureus (ID-2727)
# Method: as §1
# [11] = tested on: Staphylococcus aureus (SMITH)
# Method: as §1
# [12] = tested on: Enterococcus faecium (ID-3301)
# Method: as §1
# [13] = tested on: Bacillus subtilis (Bacto)
# Method: as §1
# [14] = tested on: Enterococcus faecalis (ATCC 29212)
# Method: as §1
# [15] = tested on: Staphylococcus aureus (ATCC 29213)
# Method: as §1
# [16] = tested on: Enterococcus faecium (ID-3953)
# Method: as §1
# [17] = tested on: Staphylococcus aureus (ID-2371)
# Method: as §1
# [18] = tested on: Staphylococcus hemolyticus (ID-4061)
# Method: as §1
# [19] = tested on: Enterococcus faecalis (ID-1829)
# Method: as §1
# [20] = tested on: Staphylococcus aureus (ID-4379)
# Method: as §1
# Escherichia coli (J2175) = tested on: Escherichia coli (J2175)
# Method: as §1
MIC [1],MIC [2],MIC [3],MIC [6],MIC [8],MIC [12],MIC [13],MIC [14],MIC [16],MIC [17],MIC [19],SMILES,further results
>128,>128,–,–,–,–,–,–,–,–,–,CC(C)CC(=O)OC1C(CO)OC(OC2C(CO)OC(Oc3ccc(CC4NC(=O)C(C(C)c5ccccc5)NC(=O)CNC(=O)C(CO)NC(=O)C(C(O)C5CNC(=N)N5C5OC(CO)C(O)C(O)C5O)NC(=O)C(C(O)C5CNC(=N)N5)NC4=O)cc3)C(O)C2O)C(O)C1O (stereo not drawn) [AC-98-5],–
>128,>128,128,–,–,–,–,–,–,–,–,CC(C)CC(=O)OC1C(OC2C(CO)OC(Oc3ccc(CC4NC(=O)C(C(C)c5ccccc5)NC(=O)CNC(=O)C(CO)NC(=O)C(C(O)C5CNC(=N)N5C5OC(CO)C(O)C(O)C5O)NC(=O)C(C(O)C5CNC(=N)N5)NC4=O)cc3)C(O)C2O)OC(CO)C(O)C1O (stereo not drawn) [AC-98-3],–
>128,>128,>128,>128,>128,>128,>128,>128,>128,>128,>128,"CC(c1ccccc1)C1NC(=O)CNC(=O)C(CO)NC(=O)C(C(O)C2CNC(=N)N2C2OC(CO)C(O)C(O)C2O)NC(=O)C(C(O)C2CNC(=N)N2)NC(=O)C(Cc2ccc(OC3OC(CO)C(OC4OC(CO)C(O)C(O)C4O)C(O)C3O)cc2)NC1=O (stereo not drawn) [AC-98-1] (cyclo(G[ξPhe(βξ-Me)]Y(X2)[ξEnduracididine(βξ-OH,4'ξ)][X1]S); configuration not given here)",MIC [4]: 128; MIC [5]: >128; MIC [7]: 128; MIC [9]: 128; MIC [10]: >128; MIC [11]: 128; MIC [15]: 128; MIC [18]: 128; MIC [20]: 128
>128,>128,>128,128,128,>128,>128,>128,128,128,128,"CC(c1ccccc1)C1NC(=O)CNC(=O)C(CO)NC(=O)C(C(O)C2CNC(=N)N2C2OC(CO)C(O)C(O)C2O)NC(=O)C(C(O)C2CNC(=N)N2)NC(=O)C(Cc2ccc(O)cc2)NC1=O (stereo not drawn) [AC-98-2] (cyclo(G[ξPhe(βξ-Me)]Y[ξEnduracididine(βξ-OH,4'ξ)][X1]S); configuration not given here)",–

SMILES,MIC [1],MIC [2],MIC [3],MIC [6],MIC [8],MIC [12],MIC [13],MIC [14],MIC [16],MIC [17],MIC [19],further results
CC(C)CC(=O)OC1C(O)C(CO)OC(OC2C(CO)OC(Oc3ccc(CC4NC(=O)C(C(C)c5ccccc5)NC(=O)CNC(=O)C(CO)NC(=O)C(C(O)C5CNC(=N)N5C5OC(CO)C(O)C(O)C5O)NC(=O)C(C(O)C5CNC(=N)N5)NC4=O)cc3)C(O)C2O)C1O (stereo not drawn) [AC-98-4],>128,>128,–,–,–,–,–,–,–,–,–,MIC (Escherichia coli (J2175)): 128
